Earlier results as cited in US11179330B2, “Doxepin oral transmucosal film” (Xiamen LP Pharmaceutical Co., Ltd., priority 2019, dated 2021).
Where a name gives a salt, the structure may show the parent alone.

Legend:
[1] = patients

mean oral bioavailability | SMILES | sleep maintained [1] [h]
– | CN(C)CCC=C1c2ccccc2COc2ccccc21 [Doxepin hydrochloride] | 7 to 8
13-45% | CN(C)CCC=C1c2ccccc2COc2ccccc21 [Doxepin] | –
